From patent US20080175903A1, “Treatment of anxiety with eszopiclone” (Sepracor Inc., priority 2006, published 2008)
Read-outs that look alike come from different tables or passages of the source.

Columns and labels:
[1] = tested on: rhesus monkeys; conditions: previously published in Rowlett et al., 2006; cited from earlier work
[2] = Clinical study of eszopiclone in healthy volunteers: plasma concentration-time profiles after oral administration; assay type: in vivo, human; conditions: post-dose
Experimental: FIG. 1 is a plot of mean (S)-zopiclone plasma concentration-time profiles following oral administration of (S)-zopiclone.
A clinical study of eszopiclone in healthy volunteers was performed using art-recognized methodology.

[3] = tested on: healthy adult male human subjects; experiment: EEG study (quantitative wake EEG) of single doses of eszopiclone versus placebo; assay type: in vivo
Experimental: A study was conducted to evaluate the pharmacodynamic (quantitative wake electroencephalogram (qEEG) and auditory P300 (evoked potentials (EPs)) of four doses of eszopiclone, relative to placebo, in healthy adult male human subjects. The study was single-blind, placebo-controlled, ascending, single dose. Subjects received single doses of immediate release formulations that contained 0.3 mg of eszopiclone, 0.6 mg of eszopiclone, 0.9 mg of eszopiclone or 2.0 mg of eszopiclone.
Changes in beta EEG activity are interpreted as indicating an anxiolytic effect (Ansseau et al, Neuropsychobiology 1984, 12(4):255-9; Buchsbaum et al, Biol. Psychiatry, 1985, 20(8):832-42; Macher et al, Human psychopharmacology, 1990 (eds I Hindmarch and P D Stonier), Vol 3, 10-2; Mandema and Danhof, Clin Pharmacokinet, 1992, 23(3):191-215.
In this study, statistical EEG maps were obtained comparing EEG power values for each dose of eszopiclone versus placebo. […] The dose effect is further illustrated in the graphically depicted results of FIG. 4 which follows.
Classically, delta activity in pharmaco-EEG indicates a sedative effect of the drug under study. Delta EEG activity is clearly modified when the sedative drug effect has reached a high threshold.
Conclusions regarding a possible sedative effect or a trend to impair the subject's arousal should also include analyses of a drug's effects on alpha EEG activity, which reflect decreases in subject's arousal (pro sedative effect).

[4] = molecular target: T1, α1-containing GABAA receptors (human α1, β3, γ2L) (Homo sapiens, UniProt P14867+P18507); experiment: Potentiation of GABA evoked currents, recombinant GABA-A receptors in Xenopus oocytes, two-electrode voltage clamp; assay type: cell-based
T1 construct: expressed in transfected cells; host or cells: Xenopus oocytes (cDNA injected, alpha:beta:gamma 1:1:3)
Experimental: (§1) FIG. 2 is a plot showing the concentration-dependent potentiation of GABA evoked currents by (S)-zopiclone. For all experiments, human cDNA encoding each subunit was injected in oocytes in a stoichiometry of 1:1:3 (alpha, beta, gamma subunits). Approximately 24 hours later, GABA evoked currents (using a concentration of GABA equal to the EC10) were recorded from oocytes using a two-electrode voltage clamp on a robotic oocyte platform and a constant voltage of −80 mV. GABA was applied to the oocytes via a perfusion system for 20 seconds and then removed. An inward deflection of the current trace was recorded and subsequently compared to the responses resulting from applying the same concentration of GABA plus varying concentrations of the test compound ((S)-zopiclone). A doubling of the GABA evoked current is represented as a potentiation ratio of 1.0.
(§2) The GABA-A receptor is gated by GABA, and ligands at the benzodiazepine site potentiate GABA-evoked currents. It is well-established in the scientific literature that classical benzodiazepines potentiate GABA evoked chloride currents through GABA-A receptors. The efficacies of classical benzodiazepines can be described as “full modulators” referring to their ability to increase the chloride currents induced by sub-maximal GABA concentrations. The action of (S)-zopiclone on GABA-A receptors was evaluated by examining their effects on electrophysiological recordings in a recombinant expression system.
(§3) Recombinant GABA-A receptors were expressed in Xenopus oocytes by injecting cDNA encoding the human β3, γ2L, and each of α1, α2, α3, or α5 subunits in turn to assemble functional channels. Channel activity was measured using two-electrode voltage clamp in whole cell configuration on a robotic workstation. […] The potentiation ratio was then measured as the fold-increase in current generated by a (S)-zopiclone plus an EC10 of GABA, compared to the current generated by just the EC10 of GABA alone. These potentiation ratios were measured at a range of (S)-zopiclone concentrations to generate a subsequent concentration response curve at each of the subtypes using between 2 and 7 oocytes. […]
(§4) For all experiments, human cDNA encoding each subunit was injected in oocytes in a stoichiometry of 1:1:3 (alpha, beta, gamma subunits). Approximately 24 hours later, GABA evoked currents (using a concentration of GABA equal to the EC10) were recorded from oocytes using a two-electrode voltage clamp on a robotic oocyte platform and a constant voltage of −80 mV. […] An inward deflection of the current trace was recorded and subsequently compared to the responses resulting from applying the same concentration of GABA plus varying concentrations of the test compound [(S)-zopiclone]. […]

[5] = molecular target: T2, α5-containing GABAA receptors (human α5, β3, γ2L) (Homo sapiens, UniProt P18507+P31644); experiment: as above; assay type: cell-based
T2 construct: expressed in transfected cells; host or cells: Xenopus oocytes (cDNA injected, alpha:beta:gamma 1:1:3)
Experimental: as §1, §2, §3, §4

[6] = molecular target: T3, α3-containing GABAA receptors (human α3, β3, γ2L) (Homo sapiens, UniProt P18507+P34903); experiment: as above; assay type: cell-based
T3 construct: expressed in transfected cells; host or cells: Xenopus oocytes (cDNA injected, alpha:beta:gamma 1:1:3)
Experimental: as §1, §2, §3, §4

[7] = molecular target: T4, α2-containing GABAA receptors (human α2, β3, γ2L) (Homo sapiens, UniProt P18507+P47869); experiment: as above; assay type: cell-based
T4 construct: expressed in transfected cells; host or cells: Xenopus oocytes (cDNA injected, alpha:beta:gamma 1:1:3)
Experimental: as §1, §2, §3, §4

[8] = tested on: rhesus monkeys; experiment: Rhesus monkey conflict procedure (suppressed and non-suppressed responding); assay type: in vivo; conditions: for ED50: Macaca mulatta, iv, rhesus monkeys; for Estimated anxiolytic dose / expected human oral dose: minimum recommended dose of diazepam 2 mg
Experimental: FIG. 3 is a plot of rates of non-suppressed and suppressed responding by rhesus monkeys trained in a conflict procedure. Monkeys were injected i.v. with cumulative doses of (S)-zopiclone. Data are mean±S.E.M. for N=4 monkeys. Points above “V” represent data following drug vehicle administration. Note that *P<0.05 vs. V (control). Experimental methodology was identical to that described by Rowlett J K et al. (2006).
“Conflict Procedure,” as used herein refers to the rhesus monkey conflict procedure reported by Rowlett et al. (Psychopharmacology (2006) 184:201-211). Antianxiety dosage determination in rhesus monkeys using the procedure set forth by Rowlett et al. is correlative with antianxiety dosages in humans. The conflict procedure is a method of determining the parameters correlating a clinically determinable effect of eszopiclone in rhesus monkeys with analogous effects in a human subject. The results of conflict procedures in rhesus monkeys are closely correlated with dosages of agents providing anxiolysis in humans. Accordingly, the conflict procedure is a method of determining whether a dosage of eszopiclone provides clinically determinable treatment or prophylaxis of anxiety in humans.
Conflict procedures in animals are used to study mechanisms underlying the anxiolytic effects of benzodiazepines (Rowlett J K et al., Psychopharmacology (2006) 184:201-211). […] The effects of each benzodiazepine in rhesus conflict procedure is to increase suppressed responding at doses lower than the doses that ultimately decrease rates of non-suppressed responding. This characteristic profile in the rhesus conflict procedure contrasts dramatically with the effects of non-benzodiazepine hypnotics zolpidem and zaleplon, and also contrasts to the effects of GABA-A ligands with subtype efficacies different from classical benzodiazepines, such as flumazenil and CL218,872 (Rowlett J K et al., 2006).
This correlation was used to estimate the therapeutic dose in humans for anxiolytic effects. The ED50 of the suppressed responding in FIG. 3 is 0.07 mg/kg i.v., indicating a 50% anxiolytic effect at that dose i.v. in the rhesus procedure. Using this ED50 in the regression analysis of Rowlett J K et al. (2006), an expected human oral dose of 0.9 mg is obtained. This dose is below the hypnotic doses (i.e., it is subsedative) used clinically in humans (1, 2, and 3 mg), further supporting the validity of the correspondence between the efficacy profiles of classical benzodiazepines and (S)-zopiclone.
The potencies of eszopiclone to alter suppressed and non-suppressed responding were estimated by calculating the dose that engendered 5% to 95% of the maximum effect (EDx, where x=5-95%). The EDx for suppressed responding was obtained by dividing rates of suppressed responding for individual monkeys by the average maximum increase in response rate (i.e., the peak effect) and multiplying the value by 100. Doses on the ascending limb of the dose-response function were used to calculate the EDx by log-linear regression analysis. The EDx for non-suppressed responding was obtained by dividing rates of non-suppressed responding for individual monkeys by the average maximum decrease in response rate (this corresponded to the highest dose tested) and multiplying by 100. The EDx values for non-suppressed responding were calculated by log-linear regression analysis. All potencies were expressed as the mean±SEM for n=4 monkeys.
A linear relationship between relative potency to induce clinical effects in humans and relative potency to increase suppressed responding or decrease non-suppressed responding in monkeys has been determined previously for 10 standard benzodiazepines (Rowlett et al., 2006). […]

[9] = log10 of predicted potency relative to diazepam in humans
[10] = predicted potency relative to diazepam in humans
[11] = relative potency in the monkey conflict procedure

T3 sequence (P34903 29-492): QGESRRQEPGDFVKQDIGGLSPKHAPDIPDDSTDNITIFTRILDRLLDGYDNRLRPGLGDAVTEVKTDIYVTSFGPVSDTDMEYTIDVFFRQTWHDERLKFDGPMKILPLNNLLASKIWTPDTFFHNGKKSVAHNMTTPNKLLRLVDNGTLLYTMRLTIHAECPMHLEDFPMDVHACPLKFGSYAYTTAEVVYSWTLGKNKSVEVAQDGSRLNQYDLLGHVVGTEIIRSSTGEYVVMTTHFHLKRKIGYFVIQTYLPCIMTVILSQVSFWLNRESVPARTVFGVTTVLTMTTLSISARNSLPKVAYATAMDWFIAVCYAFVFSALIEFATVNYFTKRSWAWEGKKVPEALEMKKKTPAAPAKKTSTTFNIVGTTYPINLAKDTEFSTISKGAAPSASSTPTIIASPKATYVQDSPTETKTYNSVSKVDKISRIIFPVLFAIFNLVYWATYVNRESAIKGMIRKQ
T3 sequence (P28472 26-473 partner): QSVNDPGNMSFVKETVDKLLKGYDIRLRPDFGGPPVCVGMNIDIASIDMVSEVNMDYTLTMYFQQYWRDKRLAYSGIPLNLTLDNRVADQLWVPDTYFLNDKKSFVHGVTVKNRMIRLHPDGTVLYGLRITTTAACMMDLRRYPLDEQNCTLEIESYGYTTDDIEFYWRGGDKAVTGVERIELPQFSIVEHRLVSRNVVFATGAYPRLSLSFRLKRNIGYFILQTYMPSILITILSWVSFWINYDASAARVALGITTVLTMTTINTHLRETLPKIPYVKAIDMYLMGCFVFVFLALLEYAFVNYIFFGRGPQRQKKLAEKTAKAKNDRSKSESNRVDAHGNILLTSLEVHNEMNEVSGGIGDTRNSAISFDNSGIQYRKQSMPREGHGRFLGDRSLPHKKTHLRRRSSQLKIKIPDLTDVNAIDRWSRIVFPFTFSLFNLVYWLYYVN
T3 sequence (P18507 40-475): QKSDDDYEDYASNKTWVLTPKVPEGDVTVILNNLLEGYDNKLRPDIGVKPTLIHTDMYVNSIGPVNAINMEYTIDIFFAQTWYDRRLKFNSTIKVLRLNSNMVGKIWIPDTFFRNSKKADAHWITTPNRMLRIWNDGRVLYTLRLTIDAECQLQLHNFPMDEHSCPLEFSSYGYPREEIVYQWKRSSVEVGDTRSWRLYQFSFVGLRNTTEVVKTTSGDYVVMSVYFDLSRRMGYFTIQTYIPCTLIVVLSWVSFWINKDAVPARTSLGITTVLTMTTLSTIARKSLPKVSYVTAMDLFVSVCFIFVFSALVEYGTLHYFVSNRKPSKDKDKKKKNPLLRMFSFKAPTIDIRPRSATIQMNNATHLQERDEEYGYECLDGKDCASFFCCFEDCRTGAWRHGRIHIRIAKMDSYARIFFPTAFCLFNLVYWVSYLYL
T1 sequence (P14867 28-456): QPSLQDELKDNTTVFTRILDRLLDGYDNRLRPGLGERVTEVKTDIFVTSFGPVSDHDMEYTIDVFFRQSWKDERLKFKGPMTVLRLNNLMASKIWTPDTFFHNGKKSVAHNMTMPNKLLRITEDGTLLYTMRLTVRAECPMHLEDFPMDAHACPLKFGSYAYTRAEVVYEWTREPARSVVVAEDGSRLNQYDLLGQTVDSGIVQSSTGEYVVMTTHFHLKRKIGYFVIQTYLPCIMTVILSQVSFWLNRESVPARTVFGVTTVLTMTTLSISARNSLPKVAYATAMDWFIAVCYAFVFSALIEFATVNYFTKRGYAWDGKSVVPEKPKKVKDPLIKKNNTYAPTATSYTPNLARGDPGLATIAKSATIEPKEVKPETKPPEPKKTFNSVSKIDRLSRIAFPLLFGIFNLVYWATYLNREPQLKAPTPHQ
T1 sequence (P28472 26-473 partner): as the sequence (P28472 26-473 partner) above
T1 sequence (P18507 40-475): as the sequence (P18507 40-475) above
T2 sequence (P31644 32-462): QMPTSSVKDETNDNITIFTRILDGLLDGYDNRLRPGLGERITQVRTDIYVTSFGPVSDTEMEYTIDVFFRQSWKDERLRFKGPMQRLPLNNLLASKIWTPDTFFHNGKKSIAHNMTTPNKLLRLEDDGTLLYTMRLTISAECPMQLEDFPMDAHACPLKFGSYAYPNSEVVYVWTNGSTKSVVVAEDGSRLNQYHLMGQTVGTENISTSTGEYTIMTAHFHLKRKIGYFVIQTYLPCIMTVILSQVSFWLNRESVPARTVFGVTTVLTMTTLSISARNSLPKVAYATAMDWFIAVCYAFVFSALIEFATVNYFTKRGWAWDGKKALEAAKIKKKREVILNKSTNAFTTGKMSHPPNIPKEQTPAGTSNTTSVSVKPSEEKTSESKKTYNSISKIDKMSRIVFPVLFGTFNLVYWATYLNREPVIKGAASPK
T2 sequence (P28472 26-473 partner): as the sequence (P28472 26-473 partner) above
T2 sequence (P18507 40-475): as the sequence (P18507 40-475) above
T4 sequence (P47869 29-451): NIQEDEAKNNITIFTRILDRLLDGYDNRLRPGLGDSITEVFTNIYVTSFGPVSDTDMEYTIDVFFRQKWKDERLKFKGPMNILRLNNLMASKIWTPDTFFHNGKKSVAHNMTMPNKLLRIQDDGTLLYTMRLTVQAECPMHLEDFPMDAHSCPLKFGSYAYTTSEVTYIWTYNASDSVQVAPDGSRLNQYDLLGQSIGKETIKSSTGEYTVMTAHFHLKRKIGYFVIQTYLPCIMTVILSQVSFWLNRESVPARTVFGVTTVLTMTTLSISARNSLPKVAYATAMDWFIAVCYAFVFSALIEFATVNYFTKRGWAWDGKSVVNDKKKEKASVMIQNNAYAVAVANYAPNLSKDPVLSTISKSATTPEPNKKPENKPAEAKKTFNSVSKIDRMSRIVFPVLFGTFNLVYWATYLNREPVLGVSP
T4 sequence (P28472 26-473 partner): as the sequence (P28472 26-473 partner) above
T4 sequence (P18507 40-475): as the sequence (P18507 40-475) above

SMILES: CN1C(=O)CN=C(c2ccccc2)c2cc(Cl)ccc21 [Diazepam, diazepam]
- ED50, non-suppressed responding [1]: 1.65 mg/kg
- ED50, suppressed responding [1]: 0.11 mg/kg

SMILES: CN1CCN(C(=O)O[C@H]2c3nccnc3C(=O)N2c2ccc(Cl)cn2)CC1 [Eszopiclone, (+)-(5S)-6-(chloropyridin-2-yl)-7-oxo-6,7-dihydro-5H-pyrrolo[3,4-b]pyrazin-5-yl 4-methyl-piperazine-1-carboxylate]
- time of maximum mean (S)-zopiclone plasma concentrations ([2]; fasted conditions): 0.5 to 1.5 h
- time of maximum mean (S)-zopiclone plasma concentrations ([2]; fed conditions): 2 to 3 h
- Alpha EEG activity (arousal), change from placebo ([3]; doses below 2.0 mg): did not exhibit major effects on arousal
- Alpha EEG activity (arousal), change from placebo ([3]; highest dose (2.0 mg)): induces a significant impairment in the subject's arousal and possibly a sedative effect
- Delta EEG activity (sedative effect), change from placebo ([3]; highest dose (2.0 mg)): induces a significant sedative effect
- Delta EEG activity (sedative effect), change from placebo ([3]; other doses (0.3, 0.6, 0.9 mg)): do not have this side effect
- EC50 [4]: 30 nM
- EC50 [5]: 40 nM
- EC50 [6]: 250 nM
- EC50 [7]: 100 nM
- ED50 ([8]; read-out: ED50, non-suppressed responding): 0.74 mg/kg
- ED50 ([8]; read-out: ED50, suppressed responding): 0.07 mg/kg
- Estimated anxiolytic dose / expected human oral dose ([8]; human, regression of Rowlett et al. (2006), listed as (S)-zopiclone): 0.9 mg
- Estimated anxiolytic dose / expected human oral dose ([8]; human, regression of Rowlett et al. (2006), listed as eszopiclone): Estimated anxiolytic dose for eszopiclone = 0.9 mg
- Estimated sedative dose ([8]; human, regression of Rowlett et al. (2006), maximum recommended dose of diazepam 10 mg): Estimated sedative dose for eszopiclone = 3.4 mg
- Y = 0.583x − 0.175, Y (eszopiclone relative potency), non-suppressed responding [8, 9]: −0.47
- Y = 0.672x − 0.174, Y (eszopiclone relative potency), suppressed responding [8, 9]: −0.34
- 10^Y, non-suppressed responding [8, 10]: 0.34
- 10^Y, suppressed responding [8, 10]: 0.46
- Ratio (eszopiclone ED50 / diazepam ED50), non-suppressed responding [8, 11]: 0.31
- Ratio (eszopiclone ED50 / diazepam ED50), suppressed responding [8, 11]: 0.64
- Log10(Ratio), non-suppressed responding ([8]; rhesus monkey, in vivo): −0.51
- Log10(Ratio), suppressed responding ([8]; rhesus monkey, in vivo): −0.19
- ED5 to increase rates of suppressed responding (mean) ([8]; x = 5 % maximum increase, N = 4 monkeys): 0.029 mg/kg, i.v.
- ED10 to increase rates of suppressed responding (mean) ([8]; x = 10 % maximum increase, N = 4 monkeys): 0.032 mg/kg, i.v.
- ED15 to increase rates of suppressed responding (mean) ([8]; x = 15 % maximum increase, N = 4 monkeys): 0.036 mg/kg, i.v.
- ED20 to increase rates of suppressed responding (mean) ([8]; x = 20 % maximum increase, N = 4 monkeys): 0.040 mg/kg, i.v.
- ED25 to increase rates of suppressed responding (mean) ([8]; x = 25 % maximum increase, N = 4 monkeys): 0.044 mg/kg, i.v.
- ED30 to increase rates of suppressed responding (mean) ([8]; x = 30 % maximum increase, N = 4 monkeys): 0.048 mg/kg, i.v.
- ED35 to increase rates of suppressed responding (mean) ([8]; x = 35 % maximum increase, N = 4 monkeys): 0.054 mg/kg, i.v.
- ED40 to increase rates of suppressed responding (mean) ([8]; x = 40 % maximum increase, N = 4 monkeys): 0.059 mg/kg, i.v.
- ED45 to increase rates of suppressed responding (mean) ([8]; x = 45 % maximum increase, N = 4 monkeys): 0.066 mg/kg, i.v.
- ED50 to increase rates of suppressed responding (mean) ([8]; x = 50 % maximum increase, N = 4 monkeys): 0.073 mg/kg, i.v.
- ED55 to increase rates of suppressed responding (mean) ([8]; x = 55 % maximum increase, N = 4 monkeys): 0.081 mg/kg, i.v.
- ED60 to increase rates of suppressed responding (mean) ([8]; x = 60 % maximum increase, N = 4 monkeys): 0.090 mg/kg, i.v.
- ED65 to increase rates of suppressed responding (mean) ([8]; x = 65 % maximum increase, N = 4 monkeys): 0.100 mg/kg, i.v.
- ED70 to increase rates of suppressed responding (mean) ([8]; x = 70 % maximum increase, N = 4 monkeys): 0.110 mg/kg, i.v.
- ED75 to increase rates of suppressed responding (mean) ([8]; x = 75 % maximum increase, N = 4 monkeys): 0.123 mg/kg, i.v.
- ED80 to increase rates of suppressed responding (mean) ([8]; x = 80 % maximum increase, N = 4 monkeys): 0.136 mg/kg, i.v.
- ED85 to increase rates of suppressed responding (mean) ([8]; x = 85 % maximum increase, N = 4 monkeys): 0.151 mg/kg, i.v.
- ED90 to increase rates of suppressed responding (mean) ([8]; x = 90 % maximum increase, N = 4 monkeys): 0.168 mg/kg, i.v.
- ED95 to increase rates of suppressed responding (mean) ([8]; x = 95 % maximum increase, N = 4 monkeys): 0.186 mg/kg, i.v.
